Marks after values point to notes of the source that are not given here.
How the values were obtained:
[1] = test system: xenobiotic responsive element (XRE); assay: Evaluation of ability to trigger a foreign body reaction using XRE-NLuc::HaCaT reporter cells (NLuc luminescence per viable cell); type: cell-based, human; conditions: XRE-NLuc::HaCaT cells; for EC50: reporter protein expression; for Present Experiment Maximum Effective concentration Max. Induction: concentration at which reporter expression was maximized
Protocol: First, XRE-NLuc::HaCaT cells were suspended in a DMEM medium at the density of 1×10^5 cell/mL, and 100 μL of the thus obtained suspension was added to each well of white 96 well plates (Thermo Fisher Scientific, MA, U.S.A.; Catalogue No.: 136102) so that the number of the cells in each well was 10,000 cells/well. In accordance with a conventional method, the cells were incubated at 37° C., 5% CO2 for 24 hours. Thereafter, the DMEM medium was removed, and 100 μL of a new DMEM medium containing FICZ (6-Formylindolo[3,2-b]carbazole; CAS RN: 172922-91-7) as a test sample at a predetermined concentration was added, followed by further incubation for 24 hours at 37° C., 5% CO2. FICZ is known as a substance that triggers a foreign body reaction in which XRE is involved. Meanwhile, negative controls were prepared by adding 100 μL of a DMEM medium containing no FICZ instead of the DMEM medium containing FICZ, which were also incubated for 24 hours at 37° C., 5% CO2.
(§1) After the above-described incubation for 24 hours, the number of cells in each well was counted by a colorimetric method based on the degradation of tetrazolium salt (WST-1) by mitochondrial dehydrogenase in viable cells. Specifically, 3 μL of Premix WST-1 (Product Name “Premix WST-1 Cell Proliferation Assay System”; Takara Bio Inc., Shiga, Japan; Catalogue No.: MK400) was added to each well of 96 well plates, and then the cells were cultured for 1 hour at 37° C., 5% CO2. Thereafter, 93 μL of cell culture supernatant was removed from each well to measure the absorbance of the supernatant in each well. The removed supernatants were transferred to transparent 96 well plates, and then the absorbance at 450 nm (A450) and, as a reference wavelength, the absorbance at 670 nm (A670) were measured using iMark microplate reader (Bio-Rad; Catalogue No.: 168-1130JA). A value (A450-A670) was obtained by subtracting the absorbance at 670 nm (A670) from the absorbance at 450 nm (A450). The relative viable cell count (%) was expressed as a relative value with the value (A450-A670) obtained for the negative control as 100%.
Meanwhile, the expression level of the reporter protein was measured using samples left on the white 96-well plates after removing the supernatants for the viable cell count measurement. Briefly, 7 μL of Nano-Glo Luciferase Assay System (Promega; Catalogue No.: N110) was added to each well of the white 96-well plate. After 3 mins, the luminescence intensity obtained from the reporter protein produced by XRE-NLuc::HaCaT cells in each well was measured using GloMax Navigator Microplate Luminometer (Promega; Catalogue No.: GM2000). The obtained luminescence intensities were divided by the relative viable cell counts obtained by the above-described colorimetric method to obtain the expression level of the reporter protein (luminescence intensity) per unit number of viable cells.
In FIG. 3, the luminescence intensity per unit number of viable cells obtained from XRE-NLuc::HaCaT cells incubated with each of the DMEM medium containing FICZ at different concentrations was shown as a relative value, with the luminescence intensity per unit number of viable cells obtained for the negative control set to 1. […] In the figure, “*” and “**” indicate statistically significant differences (p<0.05 and p<0.01, respectively) from the negative control (“FICZ Concentration 0 nM” in FIG. 3).
(§2) The ability of each test sample to trigger a foreign body reaction was evaluated using XRE-NLuc::HaCaT cells in the same manner as in Experiment 1-2, except that I3C (Indole-3-carbinol, CAS RN: 700-06-1), ITE (2-(1′H-indole-3′-carbonyl)-thiazole-4-carboxylic acid methyl ester, CAS RN: 448906-42-1), and Indirubin (CAS RN: 479-41-4) were used instead of FICZ as test samples and the amount of each test sample added to the DMEM medium was appropriately changed.

[2] = test system: XRE-NLuc::HaCaT cells; assay: in vitro; conditions: read-out: LC50; XRE-NLuc::HaCaT cells, median lethal concentration
Protocol: as §1, §2

[3] = test system: human liver cancer-derived cell line HepG2 cells; conditions: cited from earlier work
[4] = in vitro; conditions: human
Protocol: as §1, §2

[5] = test system: xenobiotic responsive element (XRE); assay: Screening: inhibition of FICZ-triggered reporter protein expression in XRE-NLuc::HaCaT cells; type: cell-based, human; conditions: FICZ 5,000 nM, 24 hours
Protocol: First, in the same manner as in Experiment 1-2, XRE-NLuc::HaCaT cells were suspended in a DMEM medium at the density of 1×10^5 cell/mL, and 100 μL of the thus obtained suspension was added to each well of white 96-well plates (Thermo Fisher Scientific, MA, U.S.A.; Catalogue No.: 136102) so that a number of the cells in each well was 10,000 cells/well. In accordance with the conventional method, the cells were incubated for 24 hours at 37° C. and 5% CO2. Thereafter, the DMEM medium was removed, and 100 μL of a new DMEM medium containing […] of FICZ, which was confirmed to activate the expression of the reporter protein in Experiment 1-2, and a candidate substance at a predetermined concentration. Meanwhile, reference samples were also prepared by adding 100 μL of a DMEM medium containing 5,000 nM of FICZ but not containing candidate substances. In this experiment, 5-hydroxy-4-phenyl-2(5H)butenolide (hereinafter also referred to as “Fraglide-1” or “FG1”) and, as a positive control, cinnamaldehyde, which is known to have an effect of inhibiting a foreign body reaction in which a xenobiotic responsive element (XRE) is involved, were used as test substances. After incubation for 24 hours at 37° C. and 5% CO2, the expression level of the reporter protein (luminescence intensity) and the viable cell count were measured in accordance with the method described in Experiment 1-2, and the expression of the reporter protein per unit number of viable cells was obtained. The inhibition rate (Inhibition (%)) of the expression of the reporter protein exerted by each candidate substance was calculated in accordance with the following formula.
In the above formula, (Reporter Expression)FICZ indicates the expression of the reporter protein per unit number of viable cells obtained from the reference samples: i.e., the cells incubated in the medium containing 5,000 nM of FICZ but not containing candidate substances. Meanwhile, (Reporter Expression)FICZ+TEST SAMPLE indicates the expression of the reporter protein per unit number of viable cells obtained from the cells incubated in the medium containing 5,000 nM of FICZ and a candidate substance. The results shown in FIG. 6 were the mean obtained from three independent experiments. The error bars represent the standard error (SE).

[6] = test system: matrix metalloprotease 2 (MMP2) mRNA; assay: MMP2 mRNA expression in HaCaT cells contacted with test substance, quantitative PCR; type: cell-based, human; conditions: retinoic acid or nicotinamide at predetermined concentrations, 24 hours
Protocol: In this experiment, the effect of Fraglide-1 on the expression of MMP9 in the level of mRNA was examined first. Specifically, HaCaT cells were treated with Fraglide-1 in the same manner as described in Experiment 3-1 except that HaCaT cells were incubated for 24 hours in the medium containing 0 μM, 1 μM, 10 μM, and 100 μM of Fraglide-1 instead of being incubated for 24 hours in the medium containing both FICZ and Fraglide-1. The total RNA was then extracted, cDNA was prepared, and the quantitative PCR was performed using the obtained cDNA. Herein, the procedure of the quantitative PCR was the same as described in Experiment 3-1 except that the primers shown in below Table 4 were used. In this experiment, the expression of MMP2 mRNA was also quantified in addition to MMP9 mRNA. MMP2 is known as a MMP which is not transcriptionally regulated by a xenobiotic responsive element (XRE). […]
Next, experiments were performed to inhibit MMP9 and MMP2 in HaCaT cells using retinoic acid (CAS RN: 302-79-4) and nicotinamide (CAS RN: 98-92-0), which are known to be substances having anti-wrinkle effect. […] Then, the total RNA was extracted, cDNA was prepared, and the quantitative PCR was carried out using the obtained cDNA. […]

[7] = test system: TIMP-1 (Tissue Inhibitor of Matrix Metalloprotease-1) mRNA; assay: TIMP-1 mRNA expression in HaCaT cells, quantitative PCR; type: cell-based, human; conditions: Fraglide-1 1 μM, 10 μM, 100 μM; retinoic acid / nicotinic acid amide at predetermined concentrations; 24 hours
Protocol: Specifically, the mRNA expression of TIMP-1 in the HaCaT cells treated with Fraglide-1 was evaluated by performing quantitative PCR using cDNA obtained in Experiment 4-1. The procedure of quantitative PCR was the same as described in Experiment 4-1 except that the primers shown in below Table 5 were used.
(§3) In FIG. 14, the results obtained for each sample were shown in relative values normalized by setting the expression level of TIMP-1 in the HaCaT cells incubated for 24 hours in DMEM medium not containing Fraglide-1 (i.e., the non-treated HaCaT cells) as 1. The results shown in FIG. 14 are the mean of values obtained from three independent experiments, and the error bars represent standard deviation (SD).
On the other hand, as comparison, the similar evaluation was performed for retinoic acid and nicotinamide, which are known as active ingredients of anti-wrinkle agents, using cDNA obtained in Experiment 4-2. The procedure for quantitative PCR was the same as already described in Experiment 3-1, except that the primers shown in Table 5 were used.
as §3, with “15,” for “14,”, “either retinoic acid and nicotinic acid amide” for “Fraglide-1”, “15” for “14”

[8] = test system: matrix metalloprotease 9 (MMP9) mRNA; assay: MMP9 mRNA expression in HaCaT cells contacted with test substance, quantitative PCR; type: cell-based, human; conditions: retinoic acid or nicotinamide at predetermined concentrations, 24 hours
Protocol: In this experiment, the effect of Fraglide-1 on the expression of MMP9 in the level of mRNA was examined first. Specifically, HaCaT cells were treated with Fraglide-1 in the same manner as described in Experiment 3-1 except that HaCaT cells were incubated for 24 hours in the medium containing 0 μM, 1 μM, 10 μM, and 100 μM of Fraglide-1 instead of being incubated for 24 hours in the medium containing both FICZ and Fraglide-1. The total RNA was then extracted, cDNA was prepared, and the quantitative PCR was performed using the obtained cDNA. Herein, the procedure of the quantitative PCR was the same as described in Experiment 3-1 except that the primers shown in below Table 4 were used. In this experiment, the expression of MMP2 mRNA was also quantified in addition to MMP9 mRNA. MMP2 is known as a MMP which is not transcriptionally regulated by a xenobiotic responsive element (XRE).
(§4) In FIG. 9 and FIG. 10, the results obtained for each sample were shown as a relative value, with the mRNA expression level of MMP9 or MMP2 in the HaCaT cells incubated for 24 hours in DMEM medium without FICZ (i.e., the non-treated HaCaT cells) set to 1. The results shown in FIG. 9 and FIG. 10 were the mean obtained from three independent experiments. The error bars represent the standard deviation (SD).
Next, experiments were performed to inhibit MMP9 and MMP2 in HaCaT cells using retinoic acid (CAS RN: 302-79-4) and nicotinamide (CAS RN: 98-92-0), which are known to be substances having anti-wrinkle effect. Briefly, HaCaT cells were made in contact with retinoic acid and nicotinamide in the same manner as in Experiment 4-1 except that retinoic acid and nicotinamide were used instead of Fraglide-1. Then, the total RNA was extracted, cDNA was prepared, and the quantitative PCR was carried out using the obtained cDNA.
as §4, with “FIG. 12” for “FIG. 9”, “FIG. 13,” for “FIG. 10,”, “medium containing neither retinoic acid nor nicotinamide” for “medium without FICZ”, “FIG. 13” for “FIG. 10”

For `OCc1c[nH]c2ccccc12` [I3C, indole-3-carbinol], the EC50 [1] was 11 µM, the “Present Experiment Maximum Effective concentration Max. Induction” value [1] was 350 µM and the CC50 [2] was > 700 µM.

For `COC(=O)c1csc(C(=O)c2c[nH]c3ccccc23)n1` [ITE, 2-(1′H-indole-3′-carbonyl)-thiazole-4-carboxylic acid methyl ester], the EC50 [1] was 1.3 µM, the “Present Experiment Maximum Effective concentration Max. Induction” value [1] was 25 µM and the CC50 [2] was > 100 µM. The “Literature Value Maximum Effective concentration Max. Induction” value [3] was 10** μM.

In the case of `O=C1Nc2ccccc2/C1=C1/Nc2ccccc2C1=O` [Indirubin, indirubin], the EC50 ([1]; Homo sapiens) is reported as 0.006 µM, the “Present Experiment Maximum Effective concentration Max. Induction” value [1] is reported as 0.25 µM and the CC50 at 24 h [4] is reported as > 40 µM.

In the case of `O=CC=Cc1ccccc1` [cinnamaldehyde], the “Inhibition (%) of expression of the reporter protein triggered by FICZ” value (“Inhibition (%)” for short) ([5]; 12.5 μM test substance) is reported as 8%, the “Inhibition (%)” value ([5]; 25 μM test substance) is reported as 14% and the “Inhibition (%)” value ([5]; 50 μM test substance) is reported as 16%.

With `NC(=O)c1cccnc1` [nicotinamide] the “expression of MMP2 mRNA vs non-treated HaCaT cells” value [6] was “decreased”, the “expression level of TIMP-1 mRNA vs non-treated HaCaT cells (in words)” value [7] was “increase of the expression level of TIMP-1 was not observed” and the “expression of MMP9 mRNA vs non-treated HaCaT cells” value [8] was “decreased expression of MMP9 was also observed”.

— patent US20240285497A1, “METHOD FOR EVALUATING AN ABILITY OF A TEST SAMPLE TO TRIGGER A FOREIGN BODY REACTION IN THE SKIN, A METHOD FOR SCREENING A SUBSTANCE HAVING AN ABILITY TO INHIBIT A FOREIGN BODY REACTION IN THE SKIN, AND AN AGENT FOR INHIBITING A FOREIGN BODY REACTION IN THE SKIN” (priority 2021, published 2024)
